The values below come from ChEMBL document CHEMBL1201862, “PubChem BioAssay data set” (2004).

Among the test systems are HT-29; HOP-92; NCI-H522; UACC-62; SN12C; U-251; CCRF-CEM; SK-MEL-28; SW-620; HOP-18; NCI-H460; A498; OVCAR-5; OVCAR-8; UO-31; MOLT-4; HCT-116; T47D; MDA-N; MCF7.
What all share (experiment): inhibition of tumour cell growth, NCI panel, 48 h

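A five-concentration, 48-hour dose response in 96-well plates underlies each endpoint, interpolated linearly between surrounding concentrations. GI50 marks 50% less growth.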 The source made the active and inactive calls. Rule as the data show it: active = GI50 up to about 1.1 µM and inactive = higher. Where only a bound is given, the exact number is not on record here.

Turning to `COC(=O)c1nc(N)nc(O)c1CCCCCc1c(O)nc(N)nc1C(=O)OC`, the GI50 in the test with HT-29, in the test on HOP-92, in the test on NCI-H522, with UACC-62, with SN12C and with U-251 was > 50 µM (inactive) each time. Also, the GI50 with CCRF-CEM, in the test with SK-MEL-28, in the test on SW-620, in the test with HOP-18, with NCI-H460 and with A498 was > 50 µM (inactive) in each case. Also, the GI50 in the test on OVCAR-5, with OVCAR-8 and in the test on UO-31 was > 50 µM (inactive) in each case.

For the compound `CCn1c2ccccc2c2ccc3c(c21)C(=O)C=CC3=O`, the GI50 with HT-29 was 21 µM (inactive); in the test on HOP-92, 12.2 µM (inactive); with NCI-H522, 2.58 µM (inactive); in the test on SN12C, 18.2 µM (inactive); in the test on U-251, 15.9 µM (inactive); in the test with CCRF-CEM, 0.375 µM (active). In addition, the GI50 in the test on SK-MEL-28 is 18.3 µM (inactive); with HOP-18 it was 11 µM (inactive); in the test with NCI-H460 it was 20.2 µM (inactive); in the test on MOLT-4, 2.07 µM (inactive); with HCT-116, 4.47 µM (inactive); in the test with OVCAR-5, 21.5 µM (inactive). Also, the GI50 is 13.7 µM (inactive) in the test on OVCAR-8 and 10 µM (inactive) with UO-31.

On to `COC(OC)c1cccnc1C`, for which the GI50 with HT-29, in the test with HOP-92, in the test on NCI-H522, in the test with UACC-62, in the test on SN12C and in the test on U-251 was > 100 µM (inactive) throughout. Besides, the GI50 in the test with CCRF-CEM, in the test on SK-MEL-28, with SW-620, with HOP-18, in the test on NCI-H460 and in the test with MOLT-4 was > 100 µM (inactive) in each case. The GI50 in the test with HCT-116, in the test with OVCAR-5, with OVCAR-8 and with UO-31 was > 100 µM (inactive) each time.

On to `O=[N+]([O-])/C(C(Cl)=C(Cl)Cl)=C(/Cl)Sc1ccccc1`, for which the GI50 in the test on HT-29 is 2.24 µM (inactive); in the test on HOP-92 it was 2.05 µM (inactive); with NCI-H522, 1.23 µM (inactive); in the test on UACC-62, 1.8 µM (inactive); with SN12C, 1.81 µM (inactive); in the test on U-251, 2.25 µM (inactive). Besides, the GI50 in the test on CCRF-CEM was 0.185 µM (active); in the test with SK-MEL-28, 1.72 µM (inactive); in the test with T47D, 3.03 µM (inactive); in the test with SW-620, 0.307 µM (active); in the test on NCI-H460 it was 17.1 µM (inactive); in the test on MDA-N it was 1.59 µM (inactive). Further, the GI50 is 0.361 µM (active) with MOLT-4; 2 µM (inactive) in the test with A498; 1.43 µM (inactive) with MCF7; 1.31 µM (inactive) in the test with HCT-116; 2 µM (inactive) in the test on OVCAR-5; 0.255 µM (active) with OVCAR-8. Also, the GI50 in the test on UO-31 was 1.42 µM (inactive).

With `CCN(CC)C(=O)Cc1c(C(=O)N(CC)CC)c(=O)nc2sccn12`, the GI50 with HT-29, in the test with HOP-92, in the test with NCI-H522, in the test on UACC-62, in the test with SN12C and in the test on U-251 was > 100 µM (inactive) in each case. For the same compound, the GI50 in the test with CCRF-CEM, in the test with SK-MEL-28, in the test with SW-620, in the test on HOP-18, in the test on NCI-H460 and with MOLT-4 was > 100 µM (inactive) throughout. Moreover, the GI50 in the test with A498, with HCT-116, in the test on OVCAR-8 and in the test on UO-31 was > 100 µM (inactive) in each case.

For `Cc1cn([C@@H]2C[C@H]2CO)c(=O)[nH]c1=O`, the GI50 in the test with HT-29, in the test on HOP-92, in the test with NCI-H522, in the test with UACC-62, in the test on SN12C and in the test on U-251 was > 100 µM (inactive) each time. Further, the GI50 in the test with CCRF-CEM, in the test with SK-MEL-28, with T47D, in the test on SW-620, in the test with NCI-H460 and in the test on MDA-N was > 100 µM (inactive) each time. In addition, the GI50 in the test with MOLT-4, in the test with A498, with MCF7, in the test on HCT-116, in the test with OVCAR-5 and in the test on OVCAR-8 was > 100 µM (inactive) in each case. The GI50 in the test with UO-31 was 80.4 µM (inactive).

In the case of `CON(C)C(=O)CCCO`, the GI50 in the test with HT-29, in the test on HOP-92, in the test with NCI-H522, in the test with UACC-62, in the test with SN12C and in the test on U-251 was > 100 µM (inactive) throughout. Further, the GI50 with CCRF-CEM, in the test with SK-MEL-28, in the test with SW-620, with HOP-18, with NCI-H460 and in the test with MOLT-4 was > 100 µM (inactive) in each case. For the same compound, the GI50 in the test with HCT-116, with OVCAR-8 and with UO-31 was > 100 µM (inactive) throughout.

For `C=CCC1C(=O)CC2(C)C(CC=C)C(=O)CC12C` (configuration not stated), the GI50 with HT-29, in the test with HOP-92, with NCI-H522, in the test with UACC-62, with SN12C and with U-251 was > 100 µM (inactive) in each case. The GI50 in the test with CCRF-CEM, in the test on SK-MEL-28, with SW-620, in the test with HOP-18, with NCI-H460 and in the test with MOLT-4 was > 100 µM (inactive) each time. The GI50 in the test on HCT-116, in the test with OVCAR-5, in the test with OVCAR-8 and in the test with UO-31 was > 100 µM (inactive) in each case.

For the compound `COc1cc(C2SCC(=O)N2c2ccc(NC(C)=O)cc2)cc(OC)c1OC` (configuration not stated), the GI50 in the test on HT-29 is 90.4 µM (inactive); with HOP-92, 48.3 µM (inactive); with NCI-H522 it was 71.4 µM (inactive); with UACC-62, 25.5 µM (inactive); with SN12C, 81.5 µM (inactive); in the test with U-251 it was > 100 µM (inactive). Further, the GI50 was 25.9 µM (inactive) in the test with CCRF-CEM; > 100 µM (inactive) in the test on SK-MEL-28; 16.6 µM (inactive) in the test on T47D; > 100 µM (inactive) in the test on SW-620; > 100 µM (inactive) in the test with NCI-H460; 33.8 µM (inactive) with MDA-N. The GI50 was 50.9 µM (inactive) in the test with MOLT-4; > 100 µM (inactive) in the test with A498; 51.3 µM (inactive) in the test with MCF7; 69.7 µM (inactive) in the test on HCT-116; > 100 µM (inactive) in the test on OVCAR-5; 77.1 µM (inactive) with OVCAR-8. Also, in the test with UO-31, the GI50 was > 100 µM (inactive).

With `COC(=O)C1OC(O[C@H]2CC[C@]3(C)[C@H]4CC=C5[C@@H]6CC(C)(C)CC[C@]6(C(=O)OC)[C@H](O)C[C@@]5(C)[C@]4(C)CC[C@H]3C2(C)C)C(O)C(O)C1O` (some centres not stated), the GI50 with HT-29 is 3.21 µM (inactive); in the test with HOP-92, 16.8 µM (inactive); with NCI-H522 it was 1.57 µM (inactive); in the test with UACC-62, 12.5 µM (inactive); with SN12C, 12.9 µM (inactive); with U-251 it was 11.6 µM (inactive). The GI50 is 3.1 µM (inactive) in the test on CCRF-CEM; 11.1 µM (inactive) in the test on SK-MEL-28; 12.6 µM (inactive) in the test on T47D; 12.4 µM (inactive) with SW-620; 6.49 µM (inactive) in the test with NCI-H460; 12.2 µM (inactive) in the test on MDA-N. Further, the GI50 in the test on MOLT-4 was 3.61 µM (inactive); in the test on A498, 12.6 µM (inactive); in the test with MCF7, 11 µM (inactive); in the test on HCT-116 it was 4.4 µM (inactive); in the test with OVCAR-5 it was 13.1 µM (inactive); in the test on OVCAR-8 it was 13.2 µM (inactive). In addition, the GI50 in the test with UO-31 is 14 µM (inactive).

As to `Clc1ccc(Nc2nc3ccccc3nc2-c2cccs2)cc1Cl`, the GI50 in the test on HT-29 was 25.3 µM (inactive); in the test on HOP-92, 19.7 µM (inactive); with UACC-62, 38.5 µM (inactive); in the test on SN12C, 89.9 µM (inactive); in the test with U-251, > 10 µM (inactive); with CCRF-CEM, 27.2 µM (inactive). The GI50 in the test with SK-MEL-28 was 28.7 µM (inactive); with SW-620 it was 85.7 µM (inactive); in the test on HOP-18, 97.5 µM (inactive); in the test with NCI-H460, 22.7 µM (inactive); in the test on MOLT-4, 14.8 µM (inactive); with HCT-116, 23.4 µM (inactive). Besides, the GI50 with OVCAR-5 was > 100 µM (inactive); in the test with OVCAR-8, 19.7 µM (inactive); with UO-31 it was 34.8 µM (inactive).

Consider `C/C1=C\[C@H](C)C[C@H](C)OC(=O)C[C@H](c2ccc(O)cc2)NC(=O)[C@@H](Cc2c(Br)[nH]c3ccccc23)N(C)C(=O)[C@H](C)NC(=O)[C@@H](C)C1` [JASPAMIDE], for which the GI50 in the test with HT-29 was 0.173 µM (active); with HOP-92 it was 0.237 µM (active); in the test with NCI-H522 it was 0.203 µM (active); in the test with UACC-62, 0.219 µM (active); in the test on SN12C, 0.361 µM (active); with U-251 it was 0.243 µM (active). For the same compound, the GI50 is 0.0209 µM (active) with CCRF-CEM; 0.124 µM (active) in the test on SK-MEL-28; 0.0512 µM (active) in the test on T47D; 0.152 µM (active) with SW-620; 0.233 µM (active) with NCI-H460; 0.0834 µM (active) with MDA-N. Besides, the GI50 in the test on MOLT-4 was 0.682 µM (active); in the test with A498, 0.0224 µM (active); in the test with MCF7, 0.0895 µM (active); in the test on HCT-116, 0.196 µM (active); in the test on OVCAR-5, 0.457 µM (active); in the test on OVCAR-8, 0.381 µM (active). Besides, the GI50 in the test with UO-31 was 0.192 µM (active).
